According to paper PMC8857812 (BMC Complementary Medicine and Therapies, 2022):

Legend:
Format in all cases: in vitro ADME
[1] = molecular target: T1, CYP2E1 (Homo sapiens, UniProt P05181); experiment: CYP2E1 inhibition in HLMs, chlorzoxazone 6-hydroxylation probe reaction; conditions: 100 μM ECH, p < 0.001 vs Control
T1 construct: tissue PrimeTox M10000.201800; host or cells: pooled human liver microsomes (50 donors)
Experimental: (§1) Eight positive controls were used for different CYPs: 10 μM furafylline for CYP1A2, 50 μM clomethiazole for CYP2E1, 50 μM tranylcypromine for CYP2C19, 1 μM ketoconazole for CYP3A4, 10 μM tranylcypromine for CYP2A6, 5 μM montelukast for CYP2C8, 10 μM sulfaphenazole for CYP2C9, and 10 μM quinidine for CYP2D6. […] The reaction was initiated by adding a newly prepared NADPH generating system, maintained at 37 °C for 30 min, and then terminated by the addition of acetonitrile. The incubation conditions were optimized to assure that the reaction was linear with time and protein concentration. Blank HLMs were incubated as Control. The supernatant was obtained after centrifugation at 14000 r/min, 15 min for LC-MS analysis.
(§2) The quantification for the corresponding metabolites was performed using a validated single LC/MS/MS run at an Ultimate 3000 HPLC system and a TSQ Quantis™ triple quadrupole mass spectrometer equipped with a heated electrospray ionization (ESI) source (Thermo Fisher, USA). […]
(§3) The relative enzyme activity was observed by High-Performance Liquid Chromatography (HPLC)-Mass Spectrometry (MS). IC50 values were calculated by Graphpad Prism 7.

[2] = molecular target: T2, CYP2C19 (Homo sapiens, UniProt P33261); experiment: CYP2C19 inhibition in HLMs, S-mephenytoin 4-hydroxylation probe reaction; conditions: 100 μM ECH, p < 0.001 vs Control
T2 construct: tissue PrimeTox M10000.201800; host or cells: pooled human liver microsomes (50 donors)
Experimental: as §1, §2, §3

[3] = molecular target: T3, CYP3A4 (Homo sapiens, UniProt P08684); experiment: CYP3A4 inhibition in HLMs, testosterone 6β-hydroxylation probe reaction; conditions: 100 μM ECH, p < 0.001 vs Control
T3 construct: tissue PrimeTox M10000.201800; host or cells: pooled human liver microsomes (50 donors)
Experimental: as §1, §2, §3

[4] = molecular target: T4, CYP2A6 (Homo sapiens, UniProt P11509); experiment: CYP2A6 inhibition in HLMs, coumarin 7-hydroxylation probe reaction; conditions: HLM; even in 100 μM concentrations
T4 construct: tissue PrimeTox M10000.201800; host or cells: pooled human liver microsomes (50 donors)
Experimental: as §1
(§4) The quantification for the corresponding metabolites was performed using a validated single LC/MS/MS run at an Ultimate 3000 HPLC system and a TSQ Quantis™ triple quadrupole mass spectrometer equipped with a heated electrospray ionization (ESI) source (Thermo Fisher, USA). The mobile phase was consisted of solvent A (0.01% acetic acid and 5 mmol/L ammonium acetate) and solvent B (methanol-acetonitrile,1:1, v/v) according to the following gradient: 0-0.5 min, B 2%; 0.5-4.0 min, B 2 to 45%; 4.0-6.5 min, B 45 to 60%; 6.5-6.8 min, B 60 to 80%; 6.8-7.2 min, B 80%; 7.2-7.5 min, B 80 to 2%; 7.5-10.0 min, B 2%. […]

[5] = molecular target: T5, CYP2C9 (Homo sapiens, UniProt P11712); experiment: CYP2C9 inhibition in HLMs, diclofenac 4′-hydroxylation probe reaction; conditions: HLM; even in 100 μM concentrations
T5 construct: Phenotyping experiments were conducted by probe reactions of eight HLMs CYPs; tissue PrimeTox M10000.201800; host or cells: pooled human liver microsomes (50 donors)
Experimental: as §1, §4

[6] = molecular target: T6, CYP2D6 (Homo sapiens, UniProt P10635); experiment: CYP2D6 inhibition in HLMs, dextromethorphan O-demethylation probe reaction; conditions: HLM; even in 100 μM concentrations
T6 construct: Phenotyping experiments were conducted by probe reactions of eight HLMs CYPs; tissue PrimeTox M10000.201800; host or cells: pooled human liver microsomes (50 donors)
Experimental: as §1, §4

[7] = molecular target: T1, CYP2E1; experiment: Assessment of time-dependent inhibition of CYP2E1 in HLMs; conditions: 20 μM ECH; incubation 0-30 min
Experimental: (§5) After the first incubation, an aliquot (20 μL) was transferred to another incubation tube, added probe substrates and start the reaction by an NADPH-generating system. After incubation for 0, 5, 10, 15, and 30 min, the corresponding metabolites were determined by HPLC-MS.

[8] = molecular target: T2, CYP2C19; experiment: Assessment of time-dependent inhibition of CYP2C19 in HLMs; conditions: 10 μM ECH; incubation 0-30 min
Experimental: as §5

[9] = molecular target: T3, CYP3A4; experiment: Time-dependent inhibition and inactivation kinetics of CYP3A4 in HLMs
Experimental: as §5
CYPs time-dependent inhibition: Kobs=KinactI/KI+I

[10] = molecular target: T1, CYP2E1; experiment: Inhibition kinetics of CYP2E1 in HLMs (Lineweaver-Burk plots)
Text: (§6) A one enzyme Michaelis Menten model with competitive substrate inhibition: V=VmaxS/Km1+I/KI+Sa
(§7) Michaelis-Menten model with uncompetitive substrate inhibition: V=VmaxS/Km+S1+I/KIKi

[11] = molecular target: T2, CYP2C19; experiment: Inhibition kinetics of CYP2C19 in HLMs (Lineweaver-Burk plots)
Text: as §6, §7

[12] = pre-incubation 0-30 min, ECH 0-50 μM, estimated from curve fitting of Kobs

T3 sequence (P08684 whole entry): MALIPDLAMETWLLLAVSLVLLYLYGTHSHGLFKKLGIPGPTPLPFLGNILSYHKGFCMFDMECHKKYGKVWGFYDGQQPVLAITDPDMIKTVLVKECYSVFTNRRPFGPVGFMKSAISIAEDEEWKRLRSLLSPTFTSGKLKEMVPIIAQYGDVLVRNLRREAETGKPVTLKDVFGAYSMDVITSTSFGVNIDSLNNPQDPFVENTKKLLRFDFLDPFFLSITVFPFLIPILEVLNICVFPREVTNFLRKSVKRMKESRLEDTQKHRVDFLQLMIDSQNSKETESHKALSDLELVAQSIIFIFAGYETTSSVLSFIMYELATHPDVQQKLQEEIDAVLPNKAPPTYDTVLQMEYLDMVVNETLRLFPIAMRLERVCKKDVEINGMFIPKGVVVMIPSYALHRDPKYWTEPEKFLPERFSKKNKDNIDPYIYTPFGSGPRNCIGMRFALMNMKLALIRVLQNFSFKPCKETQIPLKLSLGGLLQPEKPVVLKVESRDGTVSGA
T1 sequence (P05181 whole entry): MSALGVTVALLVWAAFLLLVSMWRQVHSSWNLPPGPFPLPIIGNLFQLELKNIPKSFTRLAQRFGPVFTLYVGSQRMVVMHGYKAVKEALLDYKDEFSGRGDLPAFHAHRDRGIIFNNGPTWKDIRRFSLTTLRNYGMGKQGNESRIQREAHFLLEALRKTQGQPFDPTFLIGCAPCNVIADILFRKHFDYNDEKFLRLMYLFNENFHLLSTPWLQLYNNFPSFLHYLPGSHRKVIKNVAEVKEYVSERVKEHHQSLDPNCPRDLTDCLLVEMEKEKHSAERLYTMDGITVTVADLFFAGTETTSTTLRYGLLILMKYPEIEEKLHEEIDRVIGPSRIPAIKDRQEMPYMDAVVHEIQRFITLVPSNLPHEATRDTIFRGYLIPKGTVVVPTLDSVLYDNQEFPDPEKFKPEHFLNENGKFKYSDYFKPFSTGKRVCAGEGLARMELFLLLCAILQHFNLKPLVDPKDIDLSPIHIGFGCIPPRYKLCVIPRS
T2 sequence (P33261 whole entry): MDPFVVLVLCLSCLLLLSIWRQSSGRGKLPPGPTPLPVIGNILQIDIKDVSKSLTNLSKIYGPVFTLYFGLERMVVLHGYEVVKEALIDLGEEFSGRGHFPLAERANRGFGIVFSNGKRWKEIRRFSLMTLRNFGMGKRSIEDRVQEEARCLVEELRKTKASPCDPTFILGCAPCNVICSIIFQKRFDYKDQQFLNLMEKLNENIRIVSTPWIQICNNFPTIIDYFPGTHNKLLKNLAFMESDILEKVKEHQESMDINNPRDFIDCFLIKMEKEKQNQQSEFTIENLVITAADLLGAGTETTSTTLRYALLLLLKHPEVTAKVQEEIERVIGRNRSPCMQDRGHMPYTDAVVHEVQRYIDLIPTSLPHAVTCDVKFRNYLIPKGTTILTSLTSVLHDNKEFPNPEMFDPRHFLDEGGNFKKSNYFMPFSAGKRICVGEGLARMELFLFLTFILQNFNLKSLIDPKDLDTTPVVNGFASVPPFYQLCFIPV
T5 sequence (P11712 whole entry): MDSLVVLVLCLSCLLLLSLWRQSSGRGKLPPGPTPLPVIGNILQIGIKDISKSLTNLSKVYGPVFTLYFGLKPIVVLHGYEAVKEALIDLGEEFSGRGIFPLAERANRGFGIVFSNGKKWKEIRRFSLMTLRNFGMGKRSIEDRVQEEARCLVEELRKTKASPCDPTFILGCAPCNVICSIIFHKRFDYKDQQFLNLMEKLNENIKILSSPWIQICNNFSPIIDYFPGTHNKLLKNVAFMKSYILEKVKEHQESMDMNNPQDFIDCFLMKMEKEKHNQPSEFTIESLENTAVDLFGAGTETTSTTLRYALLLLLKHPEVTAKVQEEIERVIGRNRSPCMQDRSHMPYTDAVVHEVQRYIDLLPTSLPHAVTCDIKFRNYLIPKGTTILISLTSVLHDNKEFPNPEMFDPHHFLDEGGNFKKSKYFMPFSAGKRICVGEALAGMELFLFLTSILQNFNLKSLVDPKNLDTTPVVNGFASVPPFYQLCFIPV
T6 sequence (P10635 whole entry): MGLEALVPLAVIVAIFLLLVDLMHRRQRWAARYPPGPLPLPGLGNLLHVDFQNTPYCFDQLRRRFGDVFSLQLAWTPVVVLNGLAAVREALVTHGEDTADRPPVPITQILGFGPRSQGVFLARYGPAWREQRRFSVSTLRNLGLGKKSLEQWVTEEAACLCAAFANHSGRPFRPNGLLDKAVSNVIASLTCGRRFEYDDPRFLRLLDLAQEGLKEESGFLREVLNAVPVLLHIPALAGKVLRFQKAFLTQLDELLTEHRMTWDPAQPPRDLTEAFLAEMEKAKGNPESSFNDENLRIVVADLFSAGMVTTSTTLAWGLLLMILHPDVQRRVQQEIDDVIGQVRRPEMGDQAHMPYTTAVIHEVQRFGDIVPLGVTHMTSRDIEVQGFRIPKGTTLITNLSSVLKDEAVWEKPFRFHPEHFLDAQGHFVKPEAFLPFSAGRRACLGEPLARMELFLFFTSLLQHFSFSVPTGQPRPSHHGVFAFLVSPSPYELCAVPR
T4 sequence (P11509 whole entry): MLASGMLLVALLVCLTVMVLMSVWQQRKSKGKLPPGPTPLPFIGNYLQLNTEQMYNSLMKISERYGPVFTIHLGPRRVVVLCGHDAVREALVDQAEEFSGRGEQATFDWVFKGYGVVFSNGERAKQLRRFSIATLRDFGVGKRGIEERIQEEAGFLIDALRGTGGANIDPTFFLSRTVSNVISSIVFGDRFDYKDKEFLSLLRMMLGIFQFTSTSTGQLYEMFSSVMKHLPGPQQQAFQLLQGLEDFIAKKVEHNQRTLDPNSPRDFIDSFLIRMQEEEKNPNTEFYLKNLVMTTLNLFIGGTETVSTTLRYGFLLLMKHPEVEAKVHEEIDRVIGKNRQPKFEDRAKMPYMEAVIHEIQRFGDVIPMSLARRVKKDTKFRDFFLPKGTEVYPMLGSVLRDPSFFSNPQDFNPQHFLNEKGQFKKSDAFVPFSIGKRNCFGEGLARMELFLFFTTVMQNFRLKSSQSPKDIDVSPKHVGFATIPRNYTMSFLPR

Echinacoside
effect on relative activity of CYP2E1 [1]: significant decrease
effect on relative activity of CYP2C19 [2]: significant decrease
effect on relative activity of CYP3A4 [3]: significant decrease
inhibition of CYP2A6 [4]: no significant inhibition
inhibition of CYP2C9 [5]: no significant inhibition
inhibition of CYP2D6 [6]: no significant inhibition
time dependence of CYP2E1 inhibition [7]: time-independent
time dependence of CYP2C19 inhibition [8]: time-independent
time dependence of CYP3A4 inhibition ([9]; 50 μM ECH, incubation 0-30 min): time-dependent
KI (time-dependent inhibition of CYP3A4) [9, 12]: 6.63 µM
Kinact (time-dependent inhibition of CYP3A4) [9, 12]: 0.066 min^− 1
α value for CYP2E1 [10]: not 1
mode of inhibition of CYP2E1 ([10]; Lineweaver-Burk plots): mixed type
mode of inhibition of CYP2C19 [11]: competitive type
